Patent US9663528B2, “Substituted 1,2,3,4,6,8,12,12a-octahydro-1,4-methanodipyrido[1,2-a:1',2'-d]pyrazines and methods for treating viral infections” (priority 2012, dated 2017)
Where two headings read alike, the source gives them in different places. Blank lines part the entries; values can stand above or below the molecule they belong to.

Experiments:
in vitro = settings: human
PXR = PXR (Homo sapiens (Human), UniProt O75469); experiment: Human PXR activation assay (luciferase reporter gene assay, DPX2 cells); assay type: cell-based; settings: human
Chain of PXR (O75469 whole entry): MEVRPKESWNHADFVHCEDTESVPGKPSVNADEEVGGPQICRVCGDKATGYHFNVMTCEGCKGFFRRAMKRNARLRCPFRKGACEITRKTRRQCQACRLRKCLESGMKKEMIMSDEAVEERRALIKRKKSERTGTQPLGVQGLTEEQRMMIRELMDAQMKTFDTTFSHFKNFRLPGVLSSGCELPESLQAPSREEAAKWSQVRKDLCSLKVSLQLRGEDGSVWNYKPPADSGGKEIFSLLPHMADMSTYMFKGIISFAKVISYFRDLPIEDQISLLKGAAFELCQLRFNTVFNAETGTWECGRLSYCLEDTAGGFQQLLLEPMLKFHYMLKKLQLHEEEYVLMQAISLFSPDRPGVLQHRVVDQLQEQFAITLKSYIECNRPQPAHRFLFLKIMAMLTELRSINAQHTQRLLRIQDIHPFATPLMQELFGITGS
Procedure: A stably transformed tumor cell line (DPX2) was plated on 96-well microtiter plates. DPX2 cells harbor the human PXR gene (NR112) and a luciferase reporter gene linked to two promoters identified in the human CYP3A4 gene, namely XREM and PXRE. […] The number of viable cells was determined and the reporter gene activity was assessed. Positive control: […]

OCT2 = OCT2 (Homo sapiens (Human), UniProt O15244); experiment: OCT2 inhibition assay (14C-TEA uptake, OCT2-transfected MDCKII cells); assay type: cell-based
Chain of OCT2 (O15244 whole entry): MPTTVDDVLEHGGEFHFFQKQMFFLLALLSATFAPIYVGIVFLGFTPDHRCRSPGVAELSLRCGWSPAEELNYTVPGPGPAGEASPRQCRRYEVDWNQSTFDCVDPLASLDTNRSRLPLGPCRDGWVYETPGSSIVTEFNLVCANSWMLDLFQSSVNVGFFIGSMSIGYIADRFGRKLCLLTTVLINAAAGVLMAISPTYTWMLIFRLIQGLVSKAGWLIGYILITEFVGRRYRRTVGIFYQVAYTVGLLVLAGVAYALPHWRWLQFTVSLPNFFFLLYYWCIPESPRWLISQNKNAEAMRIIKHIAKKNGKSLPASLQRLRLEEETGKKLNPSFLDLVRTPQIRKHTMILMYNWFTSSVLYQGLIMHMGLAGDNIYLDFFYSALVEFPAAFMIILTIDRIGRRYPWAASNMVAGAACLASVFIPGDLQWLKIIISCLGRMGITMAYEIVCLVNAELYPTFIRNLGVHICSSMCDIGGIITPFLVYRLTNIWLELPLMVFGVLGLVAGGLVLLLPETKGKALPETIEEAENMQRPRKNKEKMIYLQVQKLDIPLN
Procedure: On assay day, cells were trypsinized and resuspended in Krebs-Henseleit Buffer (KHB), pH 7.4 at […]. Cells were preincubated for 15 min in assay plate before addition of test compound or substrate. Test compounds were serially diluted in DMSO and then spiked (2 μL) into in 0.4 mL KHB buffer containing wild-type or OCT2-transfected cells and incubated for 10 minutes. Assay was initiated with the addition of 0.1 mL of 100 μM ^14C-TEA in KHB buffer (20 μM final concentration after mixing). The concentration of TEA is based on the Km. After 10 minutes of incubation, the assay mixture was quenched with addition of 0.5 mL of ice-cold 1×PBS buffer. Samples were then centrifuged at 1000 rpm for 5 min and supernatants were removed. Wash steps were repeated four times with ice-cold PBS. Finally, the cell pellets were lysed with 0.2N NaOH and let sit at room temperature for at least 30 min to ensure complete lysis. Samples were then counted on liquid scintillation counter and dpm counts were used to perform the following calculations.

[1] = Pharmacokinetic analysis following intravenous administration to beagle dogs; assay type: in vivo; settings: male, dog, 0.5 mg/kg; for Vd: read-out: Vss
Procedure: (§1) Pharmacokinetic analysis was performed on various test compounds following intravenous or oral administration to beagle dogs.
(§2) For pharmacokinetic analysis of intravenously administered compounds, the test compounds were formulated in 5% Ethanol, 55% PEG 300, and 40% water at 0.1 mg/mL for IV infusion. For pharmacokinetic analysis of orally administered compounds, the test compounds were formulated as an aqueous suspension in 0.1% Tween 20, 0.5% HPMC LV 100 in Di Water at 1 mg/kg.
(§3) Each dosing group consisted of 3 male, non-naïve purebred beagle dogs. At dosing, the animals weighed between 10 to 13 kg. The animals were fasted overnight prior to dose administration and up to 4 hr after dosing. For studies of intravenous administration, the test article was administered to the animals by intravenous infusion over 30 min. The rate of infusion was adjusted according to the body weight of each animal to deliver a dose of 0.5 mg/kg. For studies of oral administration, the test article was administered according to the body weight of each animal to deliver a dose of 1 mg/kg.
For pharmacokinetic analysis of intravenously administered compounds, serial venous blood samples (approximately 1 mL each) were taken from each animal at 0, 0.250, 0.483, 0.583, 0.750, 1.00, 1.50, 2.00, 4.00, 8.00, 12.0, and 24.0 hours after dosing. The blood samples were collected into Vacutainer™ tubes containing EDTA-K2 as the anti-coagulant and were immediately placed on wet ice pending centrifugation for plasma. An LC/MS/MS method was used to measure the concentration of the test compound in plasma. An aliquot of 100 μL of each plasma sample was added to a clean 96 well plate, and 400 μL of cold acetonitrile/internal standard solution (ACN)/(ISTD) was added. After protein precipitation, an aliquot of 110 μL of the supernatant was transferred to a clean 96-well plate and diluted with 300 μL of water. An aliquot of 25 μL of the above solution was injected into a TSQ Quantum Ultra LC/MS/MS system utilizing a Hypersil Gold C18 HPLC column (50×3.0 mm, 5 μm; Thermo-Hypersil Part #25105-053030). An Agilent 1200 series binary pump (P/N G1312A Bin Pump) was used for elution and separation, and an HTS Pal autosampler (LEAP Technologies, Carrboro, N.C.) was used for sample injection. A TSQ Quantum Ultra triple quadrupole mass spectrometer was utilized in selective reaction monitoring mode (Thermo Finnigan, San Jose, Calif.). Liquid chromatography was performed using two mobile phases: mobile phase A contained 1% acetonitrile in 2.5 mM ammonium formate aqueous solution with pH of 3.0, and mobile phase B contained 90% acetonitrile in 10 mM ammonium formate with pH of 4.6. Non-compartmental pharmacokinetic analysis was performed on the plasma concentration-time data. The resulting data are shown in the first three columns of Table 4. In Table 4, CL refers to clearance, which characterizes the rate at which drug is removed from plasma. The lower the clearance of a drug is, the longer the elimination half-life is in the body. Vss refers to the steady state volume of distribution and indicates how well a drug is distributed into the tissues. The larger the Vss is, the longer the elimination half-life is in the body. MRT refers to mean residence time, which is a measure of the average time molecules exist in the body.

[2] = Pharmacokinetic analysis following oral administration to beagle dogs; assay type: in vivo; settings: beagle dogs, oral, 1 mg/kg, aqueous suspension
Procedure: as §1, §2, §3
For pharmacokinetic analysis of orally administered compounds, serial venous blood samples (approximately 0.3 mL each) were taken from each animal at time points of 0, 0.25, 0.50, 1.0, 2.0, 4.0, 6.0, 8.0, 12.0 and 24.0 hours after dosing. Blood samples were collected, prepared and analyzed in a similar way to the intravenous studies described above. Non-compartmental pharmacokinetic analysis was performed on the plasma concentration-time data. The resulting data are shown in the last three columns of Table 4. In Table 4, F (%) refers to oral bioavailability. Cmax refers to the peak plasma concentration of the compound after administration. AUC refers to area under the curve and is a measure of total plasma exposure of the indicated compound.

[3] = OCT2 mediated uptake of 14C-TEA (20 μM), MDCKII cells, read-out: IC50
[4] = plasma, beagle dogs, IV infusion over 30 min
[5] = MT-4 cells, mock-infected, CC50 nM in MT-4, MT-4 cells, 5 days incubation
[6] = 15 μM, relative to maximum fold induction by 10 or 20 μM rifampicin, DPX2 cells, 24 hours, read-out: % Emax at 15 μM

Compound: O=C(NCc1c(F)cc(F)cc1F)c1cn2c(c(O)c1=O)C(=O)N1[C@H](C2)[C@H]2C[C@@H]1C(F)(F)C2 [Compound 83, (1S,4R,12aS)-3,3-difluoro-7-hydroxy-6,8-dioxo-N-(2,4,6-trifluorobenzyl)-1,2,3,4,6,8,12,12a-octahydro-1,4-methanodipyrido[1,2-a:1′,2′-d]pyrazine-9-carboxamide]
CC50 at 5 days (in vitro; CC50 nM in MT-4): 27500 nM
Emax at 24 h, 15 µM (PXR): 1%
IC50 (OCT2; [3]): 10 µM
MRT ([1]; beagle, in vivo, iv): 2.4 h
clearance ([1]; beagle, in vivo, iv): 2.68 mL/min/kg
Vd [1, 4]: 0.38 L/kg

Compound: C[C@@H](NC(=O)c1cn2c(c(O)c1=O)C(=O)N1[C@H]3CC[C@H](C3)[C@@H]1C2)c1c(F)cc(F)cc1F [Compound 77, (1R,4S,12aR)-7-hydroxy-6,8-dioxo-N—((R)-1-(2,4,6-trifluorophenyl)ethyl)-1,2,3,4,6,8,12,12a-octahydro-1,4-methanodipyrido[1,2-a:1′,2′-d]pyrazine-9-carboxamide]
CC50 at 5 days (in vitro; CC50 nM in MT-4): 10100 nM
Emax at 24 h, 15 µM (PXR): 11%
IC50 (OCT2): 3.83 µM
MRT ([1]; beagle, in vivo, iv): 2.2 h
clearance ([1]; beagle, in vivo, iv): 5 mL/min/kg
Vd [1, 4]: 0.64 L/kg

Compound: O=C(NCc1c(F)cc(F)cc1F)c1cn2c(c(O)c1=O)C(=O)N1[C@H]3CC[C@H](C3)[C@H]1C2 [Compound 55, (1R,4S,12aS)-7-hydroxy-6,8-dioxo-N-(2,4,6-trifluorobenzyl)-1,2,3,4,6,8,12,12a-octahydro-1,4-methanodipyrido[1,2-a:1′,2′-d]pyrazine-9-carboxamide]
CC50 at 5 days (in vitro; CC50 nM in MT-4): 11100 nM
Emax at 24 h, 15 µM (PXR): 24%
IC50 (OCT2): 0.476 µM
MRT ([1]; beagle, in vivo, iv): 4.2 h
clearance ([1]; beagle, in vivo, iv): 0.967 mL/min/kg
Vd [1, 4]: 0.24 L/kg

Compound: O=C(NCc1c(F)cc(F)cc1F)c1cn2c(c(O)c1=O)C(=O)N1[C@@H](C2)[C@H]2C[C@@H]1C(F)(F)C2 [Compound 98, (1S,4R,12aR)-3,3-difluoro-7-hydroxy-6,8-dioxo-N-(2,4,6-trifluorobenzyl)-1,2,3,4,6,8,12,12a-octahydro-1,4-methanodipyrido[1,2-a:1′,2′-d]pyrazine-9-carboxamide]
CC50 at 5 days (in vitro; CC50 nM in MT-4): 17900 nM
Emax at 24 h, 15 µM (PXR): 0%
IC50 (OCT2; [3]): 3.73 µM
MRT ([1]; beagle, in vivo, iv): 3.3 h
clearance ([1]; beagle, in vivo, iv): 0.783 mL/min/kg
Vd [1, 4]: 0.16 L/kg

Emax at 24 h, 15 µM (PXR; [6]): 21%
IC50 (OCT2; [3]): 0.487 µM
clearance ([1]; plasma, beagle dogs, IV infusion over 30 min, read-out: CL (converted)): 0.333 mL/min/kg
MRT ([1]; plasma, beagle dogs, IV infusion over 30 min, read-out: MRT): 7.1 h
Vd [1, 4]: 0.15 L/kg
F (%) aqueous suspension [2]: 28.0%
AUC ([2]; male, dog, plasma, read-out: AUC (μM*h) aqueous suspension): 28.6 µM·h
Cmax ([2]; male, dog, plasma, read-out: Cmax (μM) aqueous suspension): 4.5 µM
Compound: O=C(NCc1c(F)cc(F)cc1F)c1cn2c(c(O)c1=O)C(=O)N1[C@H]3CC[C@H](C3)O[C@@H]1C2 [Compound 42, (2R,5S,13aR)-8-hydroxy-7,9-dioxo-N-(2,4,6-trifluorobenzyl)-2,3,4,5,7,9,13,13a-octahydro-2,5-methanopyrido[1′,2′:4,5]pyrazino[2,1-b][1,3]oxazepine-10-carboxamide]
CC50 at 5 days (in vitro; [5]): 3540 nM

Compound: O=C(NCc1ccc(F)cc1F)c1cn2c(c(O)c1=O)C(=O)N1C(C2)[C@H]2CC[C@@H]1C2 (stereo in doubt) [Compound 48, (1S,4R,12aS)-N-(2,4-difluorobenzyl)-7-hydroxy-6,8-dioxo-1,2,3,4,6,8,12,12a-octahydro-1,4-methanodipyrido[1,2-a:1′,2′-d]pyrazine-9-carboxamide]
CC50 at 5 days (in vitro; CC50 nM in MT-4): 14000 nM
Emax at 24 h, 15 µM (PXR; [6]): 5%
IC50 (OCT2): 4.91 µM

Compound: C[C@H]1C[C@@H]2C[C@H]1O[C@H]1Cn3cc(C(=O)NCc4ccc(F)cc4F)c(=O)c(O)c3C(=O)N21 [Compound 39, (2R,3S,5R,3aS)-N-(2,4-difluorobenzyl)-8-hydroxy-3-methyl-7,9-dioxo-2,3,4,5,7,9,13,13a-octahydro-2,5-methanopyrido[1′,2′:4,5]pyrazino[2,1-b][1,3]oxazepine-10-carboxamide]
CC50 at 5 days (in vitro; CC50 nM in MT-4): 12200 nM
Emax at 24 h, 15 µM (PXR; [6]): 6%
IC50 (OCT2): 0.358 µM

Compound: O=C(NCc1c(F)cc(F)cc1F)c1cn2c(c(O)c1=O)C(=O)N1[C@H]3C[C@H](C3)[C@H]1C2 (single isomer, unassigned) [Compound 96]
CC50 at 5 days (in vitro; [5]): 26600 nM
Emax at 24 h, 15 µM (PXR; [6]): 11%
IC50 (OCT2; [3]): 1.36 µM

Compound: O=C(NCc1cc(F)c(F)cc1F)c1cn2c(c(O)c1=O)C(=O)N1[C@H]3CC[C@H](C3)O[C@@H]1C2 [Compound 64, (2R,5S,13aR)-8-hydroxy-7,9-dioxo-N-(2,4,5-trifluorobenzyl)-2,3,4,5,7,9,13,13a-octahydro-2,5-methanopyrido[1′,2′:4,5]pyrazino[2,1-b][1,3]oxazepine-10-carboxamide]
CC50 at 5 days (in vitro; CC50 nM in MT-4): 3330 nM
Emax at 24 h, 15 µM (PXR): 8%
IC50 (OCT2; [3]): 0.094 µM

Compound: C[C@@H]1CCO[C@H]2Cn3cc(C(=O)NC4(c5ccc(F)cc5F)CC4)c(=O)c(O)c3C(=O)N12 [Compound 5, (4R,12aS)-N-(1-(2,4-difluorophenyl)cyclopropyl)-7-hydroxy-4-methyl-6,8-dioxo-3,4,6,8,12,12a-hexahydro-2H-[1,3]oxazino[3,2-d]pyrido[1,2-a]pyrazine-9-carboxamide]
CC50 at 5 days (in vitro; [5]): 10500 nM
Emax at 24 h, 15 µM (PXR; [6]): 32%
IC50 (OCT2; [3]): 2.23 µM

Compound: O=C(NCc1c(F)cc(F)cc1F)c1cn2c(c(O)c1=O)C(=O)N1[C@@H]3C[C@@H](C[C@H]3F)[C@@H]1C2 [Compound 82, (1S,3R,4R,12aR)-3-fluoro-7-hydroxy-6,8-dioxo-N-(2,4,6-trifluorobenzyl)-1,2,3,4,6,8,12,12a-octahydro-1,4-methanodipyrido[1,2-a:1′,2′-d]pyrazine-9-carboxamide]
CC50 at 5 days (in vitro; CC50 nM in MT-4): 30400 nM
Emax at 24 h, 15 µM (PXR): 1%
IC50 (OCT2): 10 µM

Emax at 24 h, 15 µM (PXR; [6]): 19%
IC50 (OCT2; [3]): 0.137 µM
Compound: O=C(NCc1c(F)cc(F)cc1F)c1cn2c(c(O)c1=O)C(=O)N1[C@@H]3CC[C@@H](C3)O[C@H]1C2 [Compound 45, (13aS)-8-hydroxy-7,9-dioxo-N-(2,4,6-trifluorobenzyl)-2,3,4,5,7,9,13,13a-octahydro-2,5-methanopyrido[1′,2′:4,5]pyrazino[2,1-b][1,3]oxazepine-10-carboxamide]
CC50 at 5 days (in vitro; [5]): 15800 nM
